Test results published in ChEMBL document CHEMBL3392983, “Synthesis, antimicrobial activity and molecular docking of novel tetracyclic scaffolds incorporating a flavonoid framework with medium sized oxygen heterocycles” (2015).
Converted amounts (≈) assume the structure as drawn.

System: Escherichia coli
Experiment: Bactericidal activity against Escherichia coli ATCC 10536 assessed as microbial killing during 18 hrs post sub-culture onto drug-free solid media by broth dilution method
Assay type: functional
Conditions: ATCC 10536, 18 h, read-out: MBC99.9

With O=c1c2c(oc3ccccc13)-c1ccccc1OCCO2 as the molecule, how does the MBC read?
Its MBC is 0.085 µM (≈ 0.0238 µg/mL).

For O=c1c2c(oc3ccc(Cl)cc13)-c1ccccc1OCCCCCO2, which MBC is on record?
Its MBC is 0.034 µM (≈ 0.0121 µg/mL).

With O=c1c2c(oc3ccccc13)-c1ccccc1OCCCCO2 as the molecule, how does the MBC read?
The MBC was 0.072 µM (≈ 0.0222 µg/mL).

How did the MBC turn out when O=c1c2c(oc3ccc(F)cc13)-c1ccccc1OCCO2 was run?
Its MBC is 0.096 µM (≈ 0.0286 µg/mL).

With O=c1c2c(oc3ccc(Br)cc13)-c1ccccc1OCCCO2 as the molecule, how does the MBC read?
Its MBC is 0.027 µM (≈ 0.0101 µg/mL).

For O=c1c2c(oc3ccccc13)-c1ccccc1OCCCO2, which MBC is on record?
Its MBC is 0.052 µM (≈ 0.0153 µg/mL).

System: Staphylococcus aureus
Experiment: Bactericidal activity against Staphylococcus aureus ATCC 25923 assessed as microbial killing during 18 hrs post sub-culture onto drug-free solid media by broth dilution method
Assay type: functional
Conditions: ATCC 25923, 18 h, read-out: MBC99.9

With O=c1c2c(oc3ccccc13)-c1ccccc1OCCO2 as the molecule, how does the MBC read?
Its MBC is 0.142 µM (≈ 0.0398 µg/mL).

With O=c1c2c(oc3ccc(Cl)cc13)-c1ccccc1OCCCCCO2 as the molecule, how does the MBC read?
The MBC was 0.088 µM (≈ 0.0314 µg/mL).

How did the MBC turn out when O=c1c2c(oc3ccccc13)-c1ccccc1OCCCCO2 was run?
The MBC was 0.059 µM (≈ 0.0182 µg/mL).

How did the MBC turn out when O=c1c2c(oc3ccc(F)cc13)-c1ccccc1OCCO2 was run?
The MBC was 0.093 µM (≈ 0.0277 µg/mL).

Which MBC does the source give for O=c1c2c(oc3ccc(Br)cc13)-c1ccccc1OCCCO2 here?
Its MBC is 0.025 µM (≈ 0.00933 µg/mL).

How did the MBC turn out when O=c1c2c(oc3ccccc13)-c1ccccc1OCCCO2 was run?
The MBC was 0.136 µM (≈ 0.04 µg/mL).

System: Pseudomonas aeruginosa
Experiment: Bactericidal activity against Pseudomonas aeruginosa ATCC 10145 assessed as microbial killing during 18 hrs post sub-culture onto drug-free solid media by broth dilution method
Assay type: functional
Conditions: ATCC 10145, 18 h, read-out: MBC99.9

O=c1c2c(oc3ccccc13)-c1ccccc1OCCO2 was tested. Which MBC did it give?
The MBC was 0.071 µM (≈ 0.0199 µg/mL).

With O=c1c2c(oc3ccc(Cl)cc13)-c1ccccc1OCCCCCO2 as the molecule, how does the MBC read?
Its MBC is 0.028 µM (≈ 0.00999 µg/mL).

O=c1c2c(oc3ccccc13)-c1ccccc1OCCCCO2 was tested. Which MBC did it give?
Its MBC is 0.082 µM (≈ 0.0253 µg/mL).

With O=c1c2c(oc3ccc(F)cc13)-c1ccccc1OCCO2 as the molecule, how does the MBC read?
Its MBC is 0.033 µM (≈ 0.00984 µg/mL).

Which MBC does the source give for O=c1c2c(oc3ccc(Br)cc13)-c1ccccc1OCCCO2 here?
The MBC was 0.037 µM (≈ 0.0138 µg/mL).

How did the MBC turn out when O=c1c2c(oc3ccccc13)-c1ccccc1OCCCO2 was run?
The MBC was 0.084 µM (≈ 0.0247 µg/mL).

System: Escherichia coli
Experiment: Antimicrobial activity against Escherichia coli ATCC 10536 assessed as inhibition of microbial growth incubated for 24 hrs by broth dilution method
Assay type: functional
Conditions: ATCC 10536, 24 h

How did the MIC turn out when O=c1c2c(oc3ccccc13)-c1ccccc1OCCO2 was run?
Its MIC is 0.108 µM.

How did the MIC turn out when O=c1c2c(oc3ccc(Cl)cc13)-c1ccccc1OCCCCCO2 was run?
The MIC was 0.057 µM.

For O=c1c2c(oc3ccccc13)-c1ccccc1OCCCCO2, which MIC is on record?
Its MIC is 0.146 µM.

O=c1c2c(oc3ccc(F)cc13)-c1ccccc1OCCO2 was tested. Which MIC did it give?
Its MIC is 0.167 µM.

How did the MIC turn out when O=c1c2c(oc3ccc(Br)cc13)-c1ccccc1OCCCO2 was run?
The MIC was 0.032 µM.

O=c1c2c(oc3ccccc13)-c1ccccc1OCCCO2 was tested. Which MIC did it give?
The MIC was 0.051 µM.

System: Staphylococcus aureus
Experiment: Antimicrobial activity against Staphylococcus aureus ATCC 25923 assessed as inhibition of microbial growth incubated for 24 hrs by broth dilution method
Assay type: functional
Conditions: ATCC 25923, 24 h

O=c1c2c(oc3ccccc13)-c1ccccc1OCCO2 was tested. Which MIC did it give?
The MIC was 0.142 µM.

How did the MIC turn out when O=c1c2c(oc3ccc(Cl)cc13)-c1ccccc1OCCCCCO2 was run?
Its MIC is 0.14 µM.

How did the MIC turn out when O=c1c2c(oc3ccccc13)-c1ccccc1OCCCCO2 was run?
The MIC was 0.097 µM.

How did the MIC turn out when O=c1c2c(oc3ccc(F)cc13)-c1ccccc1OCCO2 was run?
The MIC was 0.134 µM.

How did the MIC turn out when O=c1c2c(oc3ccc(Br)cc13)-c1ccccc1OCCCO2 was run?
The MIC was 0.053 µM.

With O=c1c2c(oc3ccccc13)-c1ccccc1OCCCO2 as the molecule, how does the MIC read?
The MIC was 0.272 µM.

System: Pseudomonas aeruginosa
Experiment: Antimicrobial activity against Pseudomonas aeruginosa ATCC 10145 assessed as inhibition of microbial growth incubated for 24 hrs by broth dilution method
Assay type: functional
Conditions: ATCC 10145, 24 h

Which MIC does the source give for O=c1c2c(oc3ccccc13)-c1ccccc1OCCO2 here?
Its MIC is 0.125 µM.

How did the MIC turn out when O=c1c2c(oc3ccc(Cl)cc13)-c1ccccc1OCCCCCO2 was run?
The MIC was 0.07 µM.

O=c1c2c(oc3ccccc13)-c1ccccc1OCCCCO2 was tested. Which MIC did it give?
Its MIC is 0.113 µM.

O=c1c2c(oc3ccc(F)cc13)-c1ccccc1OCCO2 was tested. Which MIC did it give?
Its MIC is 0.1 µM.

With O=c1c2c(oc3ccc(Br)cc13)-c1ccccc1OCCCO2 as the molecule, how does the MIC read?
Its MIC is 0.04 µM.

How did the MIC turn out when O=c1c2c(oc3ccccc13)-c1ccccc1OCCCO2 was run?
The MIC was 0.136 µM.

System: Candida tropicalis
Experiment: Antimicrobial activity against Candida tropicalis ATCC 750 assessed as inhibition of microbial growth incubated for 72 hrs by broth dilution method
Assay type: functional
Conditions: ATCC 750, 72 h

For O=c1c2c(oc3ccccc13)-c1ccccc1OCCO2, which MIC is on record?
The MIC was > 0.714 µM.

How did the MIC turn out when O=c1c2c(oc3ccc(Cl)cc13)-c1ccccc1OCCCCCO2 was run?
The MIC was > 0.561 µM.

How did the MIC turn out when O=c1c2c(oc3ccccc13)-c1ccccc1OCCCCO2 was run?
The MIC was > 0.649 µM.

Which MIC does the source give for O=c1c2c(oc3ccc(F)cc13)-c1ccccc1OCCO2 here?
Its MIC is > 0.671 µM.

How did the MIC turn out when O=c1c2c(oc3ccc(Br)cc13)-c1ccccc1OCCCO2 was run?
The MIC was > 0.537 µM.

For O=c1c2c(oc3ccccc13)-c1ccccc1OCCCO2, which MIC is on record?
Its MIC is > 0.68 µM.

System: Bacillus subtilis
Experiment: Bactericidal activity against Bacillus subtilis ATCC 6633 assessed as microbial killing during 18 hrs post sub-culture onto drug-free solid media by broth dilution method
Assay type: functional
Conditions: ATCC 6633, 18 h, read-out: MBC99.9

O=c1c2c(oc3ccccc13)-c1ccccc1OCCO2 was tested. Which MBC did it give?
Its MBC is 0.071 µM (≈ 0.0199 µg/mL).

O=c1c2c(oc3ccc(Cl)cc13)-c1ccccc1OCCCCCO2 was tested. Which MBC did it give?
Its MBC is 0.014 µM (≈ 0.005 µg/mL).

For O=c1c2c(oc3ccccc13)-c1ccccc1OCCCCO2, which MBC is on record?
The MBC was 0.064 µM (≈ 0.0197 µg/mL).

How did the MBC turn out when O=c1c2c(oc3ccc(F)cc13)-c1ccccc1OCCO2 was run?
The MBC was 0.073 µM (≈ 0.0218 µg/mL).

O=c1c2c(oc3ccc(Br)cc13)-c1ccccc1OCCCO2 was tested. Which MBC did it give?
The MBC was 0.025 µM (≈ 0.00933 µg/mL).

For O=c1c2c(oc3ccccc13)-c1ccccc1OCCCO2, which MBC is on record?
The MBC was 0.034 µM (≈ 0.01 µg/mL).

System: Klebsiella pneumoniae
Experiment: Antimicrobial activity against Klebsiella pneumoniae ATCC 10031 assessed as inhibition of microbial growth incubated for 24 hrs by broth dilution method
Assay type: functional
Conditions: ATCC 10031, 24 h

O=c1c2c(oc3ccccc13)-c1ccccc1OCCO2 was tested. Which MIC did it give?
The MIC was 0.107 µM.

How did the MIC turn out when O=c1c2c(oc3ccc(Cl)cc13)-c1ccccc1OCCCCCO2 was run?
The MIC was 0.028 µM.

Which MIC does the source give for O=c1c2c(oc3ccccc13)-c1ccccc1OCCCCO2 here?
The MIC was 0.064 µM.

O=c1c2c(oc3ccc(F)cc13)-c1ccccc1OCCO2 was tested. Which MIC did it give?
The MIC was 0.117 µM.

For O=c1c2c(oc3ccc(Br)cc13)-c1ccccc1OCCCO2, which MIC is on record?
The MIC was 0.026 µM.

With O=c1c2c(oc3ccccc13)-c1ccccc1OCCCO2 as the molecule, how does the MIC read?
The MIC was 0.102 µM.

System: Candida albicans
Experiment: Antimicrobial activity against Candida albicans ATCC 10231 assessed as inhibition of microbial growth incubated for 72 hrs by broth dilution method
Assay type: functional
Conditions: ATCC 10231, 72 h

How did the MIC turn out when O=c1c2c(oc3ccccc13)-c1ccccc1OCCO2 was run?
Its MIC is > 0.714 µM.

How did the MIC turn out when O=c1c2c(oc3ccc(Cl)cc13)-c1ccccc1OCCCCCO2 was run?
The MIC was > 0.561 µM.

How did the MIC turn out when O=c1c2c(oc3ccccc13)-c1ccccc1OCCCCO2 was run?
The MIC was > 0.649 µM.

For O=c1c2c(oc3ccc(F)cc13)-c1ccccc1OCCO2, which MIC is on record?
Its MIC is > 0.671 µM.

Which MIC does the source give for O=c1c2c(oc3ccc(Br)cc13)-c1ccccc1OCCCO2 here?
The MIC was > 0.537 µM.

Which MIC does the source give for O=c1c2c(oc3ccccc13)-c1ccccc1OCCCO2 here?
The MIC was > 0.68 µM.

System: Bacillus subtilis
Experiment: Antimicrobial activity against Bacillus subtilis ATCC 6633 assessed as inhibition of microbial growth incubated for 24 hrs by broth dilution method
Assay type: functional
Conditions: ATCC 6633, 24 h

Which MIC does the source give for O=c1c2c(oc3ccccc13)-c1ccccc1OCCO2 here?
Its MIC is 0.071 µM.

How did the MIC turn out when O=c1c2c(oc3ccc(Cl)cc13)-c1ccccc1OCCCCCO2 was run?
Its MIC is 0.028 µM.

O=c1c2c(oc3ccccc13)-c1ccccc1OCCCCO2 was tested. Which MIC did it give?
Its MIC is 0.064 µM.

For O=c1c2c(oc3ccc(F)cc13)-c1ccccc1OCCO2, which MIC is on record?
The MIC was 0.117 µM.

How did the MIC turn out when O=c1c2c(oc3ccc(Br)cc13)-c1ccccc1OCCCO2 was run?
Its MIC is 0.04 µM.

O=c1c2c(oc3ccccc13)-c1ccccc1OCCCO2 was tested. Which MIC did it give?
Its MIC is 0.085 µM.
